# Assay results taken from patent publication US20240000765A1, “COMBINATION TREATMENT OF LIVER DISORDERS” (Terns Pharmaceuticals, Inc., priority 2020, published 2024).
# Like-named read-outs stand apart in the source and are kept apart here.
# Legend:
# mouse hepatocytes = assay: In vitro metabolic stability in cryopreserved hepatocytes (mouse); assay type: in vitro ADME; conditions: well-stirred liver model
# Method: (§1) In vitro half-life values were determined and scaled to predict hepatic clearance (CLpred) and hepatic extraction using the well-stirred liver model with no correction for plasma protein as described in Obach et al., The Prediction of Human Pharmacokinetic Parameters from Preclinical and In Vitro Metabolism Data, J. of Pharmacology and Experimental Therapeutics, vol. 283, no. 1, pp. 46-58 (1997).
# rat hepatocytes = assay: In vitro metabolic stability in cryopreserved hepatocytes (rat); assay type: in vitro ADME; conditions: Sprague-Dawley rat hepatocytes; well-stirred liver model
# Method: as §1
# dog hepatocytes = assay: In vitro metabolic stability in cryopreserved hepatocytes (dog); assay type: in vitro ADME; conditions: beagle dog hepatocytes; well-stirred liver model
# Method: as §1
# monkey hepatocytes = assay: In vitro metabolic stability in cryopreserved hepatocytes (monkey); assay type: in vitro ADME; conditions: cynomolgus monkey hepatocytes; well-stirred liver model
# Method: as §1
# human hepatocytes = assay: In vitro metabolic stability in cryopreserved hepatocytes (human); assay type: in vitro ADME; conditions: well-stirred liver model
# Method: as §1
# [1] = Pharmacokinetics assay, rat (IV and oral); assay type: in vivo, Sprague-Dawley (SD) rats; conditions: Sprague-Dawley rat, oral 10 mg/kg vs IV 1 mg/kg
# Source text: (§2) Results are shown in FIG. 1A (IV administration) and FIG. 1B (oral administration), and in Table 2. […] Smaller Vdss in monkeys is correlated with higher plasma protein binding.
# [2] = Pharmacokinetics assay, dog (IV and oral); assay type: in vivo, beagle dogs; conditions: beagle dog
# Source text: as §2
# [3] = Tissue distribution of radiolabeled (14C) compound after oral dose; assay type: in vivo; conditions: Long-Evans rats, oral 5 mg/kg (100 μCi/kg), up to 168 hours
# Method: Plasma, liver, small intestine, cecum, kidney, lung, heart and skin tissue samples were collected up to 168 hours, and the amount of radioactive material at various time points was measured.
# [4] = Metabolism and excretion of radiolabeled (14C) compound; assay type: in vivo; conditions: SD rats, oral 5 mg/kg or IV 2 mg/kg
# Method: Blood, bile, feces, and urine samples were collected from each rat for up to 168 hours.
# [5] = PK/PD profile, 7 consecutive daily oral doses; assay type: in vivo; conditions: cynomolgus monkeys, oral 1 mg/kg, 7 consecutive days
# [6] = Clinical study, First Study (healthy volunteers, 14 days); assay type: in vivo; conditions: healthy human volunteers, oral daily 5, 75, 200 or 400 mg
# [7] = rat, in vivo, iv, 2 mg/kg
# Source text: Blood, liver, kidney, and lung tissue samples were collected from the rats to determine a tissue/plasma ratio.
# [8] = Clinical study, Second Study (7 days, 7AC4); conditions: for % 7AC4 suppression at nadir: human subjects
# mouse model of NASH = assay: Mouse model of NASH (high fat diet + CCl4), Compound 1
# Method: Hematoxylin & Eosin (H&E) and Sirius Red histological staining of liver tissue was used to quantitate NAFLD activity score (NAS), steatosis, ballooning, inflammation and fibrosis. […] Gene expression of RNA was analyzed by RT-qPCR and RNAseq.
# NAS is calculated based upon liver steatosis, inflammation, and ballooning and was determined by analysis of liver tissue histology using H&E stain. […] Hepatocellular ballooning is a form of liver cell injury associated with cell swelling and is also measured by H&E stained liver sections. The ballooning score is calculated as follows: 0-no hepatocyte ballooning; 1-few ballooning hepatocytes; 2-many hepatocytes with prominent ballooning.
# Liver fibrosis was quantified by histological analysis of the percentage of Sirius Red-positive liver sections. […] Liver triglycerides were measured from liver tissue using a biochemical analyzer (Hitachi-700).
# [9] = system: FXR-regulated gene expression in liver and ileum; assay: Mechanism of action: tissue RNA by RT-qPCR and RNAseq after a single oral dose; conditions: C57BL/6 mice, 6 hours; for number of differentially expressed NASH-related genes modulated vs vehicle (liver RNAseq): fold change≥1.5
# Method: The RNA was analyzed by RT-qPCR and RNAseq.
# For RNAseq analysis, mRNA was extracted from total liver and sequenced using standard Illumina library preparation and sequencing protocols. Differentially expressed genes (DEG) were determined using RSEM and edgeR software packages and analyzed using Advaita Bio's iPathwayGuide software.
# THRβ = biological target: T1, THRβ (Homo sapiens, UniProt P10828); assay: Binding activity to the thyroxine receptor beta; conditions: ratio of binding IC50
# T1 sequence (P10828 1-461): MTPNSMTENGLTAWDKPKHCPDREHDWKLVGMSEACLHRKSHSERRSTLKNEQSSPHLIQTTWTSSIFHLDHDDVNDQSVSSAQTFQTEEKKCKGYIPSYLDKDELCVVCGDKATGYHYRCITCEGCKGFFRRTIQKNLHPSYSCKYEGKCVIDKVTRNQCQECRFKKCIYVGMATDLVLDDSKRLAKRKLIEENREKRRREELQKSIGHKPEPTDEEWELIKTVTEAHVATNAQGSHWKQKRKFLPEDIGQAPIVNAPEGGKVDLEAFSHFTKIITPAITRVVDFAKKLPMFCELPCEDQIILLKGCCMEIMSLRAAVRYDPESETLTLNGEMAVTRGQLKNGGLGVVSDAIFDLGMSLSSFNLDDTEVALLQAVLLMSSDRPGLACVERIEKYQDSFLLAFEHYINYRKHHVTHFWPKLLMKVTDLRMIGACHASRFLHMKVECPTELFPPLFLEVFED
# THRα = biological target: T2, THRα (Homo sapiens, UniProt P10827); assay: Binding activity to THRα; conditions: read-out: IC50 THRα binding force
# T2 sequence (P10827 1-410 isoform P10827-2): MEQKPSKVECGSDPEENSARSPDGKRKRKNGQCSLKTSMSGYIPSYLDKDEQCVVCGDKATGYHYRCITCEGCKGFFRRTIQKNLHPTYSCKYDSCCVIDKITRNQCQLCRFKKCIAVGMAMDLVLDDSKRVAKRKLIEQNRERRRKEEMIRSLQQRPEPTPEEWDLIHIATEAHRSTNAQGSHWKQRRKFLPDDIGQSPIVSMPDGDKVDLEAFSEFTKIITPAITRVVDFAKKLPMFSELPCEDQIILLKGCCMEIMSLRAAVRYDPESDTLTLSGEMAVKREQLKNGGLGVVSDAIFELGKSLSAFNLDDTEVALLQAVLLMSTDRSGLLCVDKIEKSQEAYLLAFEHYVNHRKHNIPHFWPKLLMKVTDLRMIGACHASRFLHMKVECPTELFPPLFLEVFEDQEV
# [10] = Pharmacokinetic evaluation in rats, intragastric infusion; assay type: in vivo; conditions: SD rats, intragastric 2 mg/kg
# Method: Drug Preparation: a certain amount of the drug was taken and added into a 2% Klucel LF+0.1% Tween 80 aqueous solution, to prepare a clear solution or a uniform suspension.
# Dosage: SD rats were fasted overnight and given the drug by intragastric infusion at an administrated dose of 2 mg/kg and an administrated volume of 10 mL/kg each.
# Operation: rats were dosed by intragastric infusion with the compounds. […] The heparinized sample tubes were then stored at −20° C., and the rats were allowed to eat food 2 h after the dosage.
# Determination of contents of the compounds to be tested in the plasma of rats after intragastric infusion of the drugs at different concentrations: the plasma samples were thawed at room temperature, 50 μL each was taken and added into 130 μL of an internal standard working solution (1000 ng/mL, acetonitrile, tolbutamide), and the mixture was whirled for about 1 min and then centrifugated at 4° C. and 13000 rpm for 10 min. 50 μL of the supernatant was taken and mixed with 100 μL of 50% acetonitrile water, and then introduced for LC/MS/MS analysis.
# [11] = system: FXR-regulated gene expression (SHP, BSEP, FGF-19) in human HuH7 hepatoma cells; assay: Cell-based RNA assay of FXR-regulated gene expression; conditions: Huh-7, 11 h at 37° C., RT-qPCR
# Method: […]. See Kawamata et al JBC 278 (11)[…] (2003). […]. After 30 min at RT, cAMP was measured using an HTRF readout. EC50 values for FXR-regulated gene expression were determined using a cell-based RNA assay. […] After 11 h at 37° C., RNA was isolated and analyzed by RT-qPCR using primers to FXR-related genes: small heterodimer partner (SHP), bile salt export pump (BSEP) and fibroblast growth factor 19 (FGF-19).
# [12] = other FXR agonists; cited from earlier work
# [13] = 10, 30, 100 mg/kg oral daily, 28 days
# [14] = 10, 30, 100 mg/kg oral daily, 28 days, H&E
# [15] = 10, 30, or 100 mg/kg oral daily, 28 days
# [16] = single oral dose, Compound 1 10 mg/kg, OCA 30 mg/kg
compound,measurement,setting,value
Cn1cc(C(=O)O)c2ccc(N3CCC(OCc4c(-c5c(Cl)cccc5Cl)noc4C4CC4)CC3)cc21 [Compound 1],Hepatic Extraction,mouse hepatocytes,80.7 ± 1.02%
same,In vitro Metabolic CLpred,mouse hepatocytes,72.7 ± 1 mL/min/kg
same,Hepatic Extraction,rat hepatocytes,47.3 ± 0.78%
same,In vitro Metabolic CLpred,rat hepatocytes,26.2 ± 0.5 mL/min/kg
same,Hepatic Extraction,dog hepatocytes,71.0 ± 2.49%
same,In vitro Metabolic CLpred,dog hepatocytes,22 ± 0.83 mL/min/kg
same,Hepatic Extraction,monkey hepatocytes,64.4 ± 0.28%
same,In vitro Metabolic CLpred,monkey hepatocytes,28 ± 0.17 mL/min/kg
same,Hepatic Extraction,human hepatocytes,67.0 ± 1.73%
same,In vitro Metabolic CLpred,human hepatocytes,13.8 ± 3.67 mL/min/kg
same,Oral Bioavailability,[1],21%
same,CL,[2]; IV 1 mg/kg,9 mL/min/kg
same,Oral Bioavailability,[2]; oral 3 mg/kg vs IV 1 mg/kg,82%
same,tissues with the most radioactive material,[3],"Liver, small intestine, and cecum had the most radioactive material"
same,major elimination pathway,[4],biliary excretion
same,metabolite formed,[4],acyl glucuronide metabolite
same,pharmacodynamics biomarker 7AC4 after repeated oral dosing,[5],sustained suppression
same,incidences of pruritus,[6],no incidences of pruritus
same,change in distribution to the liver on co-administration of rifampin,[7],does not result in a significant change
same,Pruritus,[8]; 25 mg daily for 7 days,No
same,Pruritus,[8]; 75 mg daily for 7 days,No
same,Pruritus,[8]; 150 mg daily for 7 days,No
same,% 7AC4 suppression at nadir,[8]; oral 25 mg daily for 7 days,75%
same,% 7AC4 suppression at nadir,[8]; oral 75 mg daily for 7 days,82%
same,% 7AC4 suppression at nadir,[8]; oral 150 mg daily for 7 days,93%
same,Pruritus,[8]; subjects taking the highest doses of Compound 1,no pruritus was observed
same,BSEP liver expression (CPM) Relative to Vehicle,"mouse model of NASH; 30 mg/kg, NASH mice",5.1
same,CYP7A1 liver expression (CPM) Relative to Vehicle,"mouse model of NASH; 30 mg/kg, NASH mice",0.02
same,CYP8B1 liver expression (CPM) Relative to Vehicle,"mouse model of NASH; 30 mg/kg, NASH mice",0.007
same,OST-B liver expression (CPM) Relative to Vehicle,"mouse model of NASH; 30 mg/kg, NASH mice",135.7
same,SHP liver expression (CPM) Relative to Vehicle,"mouse model of NASH; 30 mg/kg, NASH mice",4.6
same,liver triglyceride levels,mouse model of NASH; 100 mg/kg,statistically significant reduced
same,serum triglyceride concentration,mouse model of NASH; 100 mg/kg,statically significant reduction
same,serum ALT level,mouse model of NASH; [13],reduced
same,serum AST level,mouse model of NASH; [13],reduced
same,ballooning vs untreated NASH mice,mouse model of NASH; [14],significantly reduced
same,inflammation vs untreated NASH mice,mouse model of NASH; [14],significantly reduced
same,steatosis vs untreated NASH mice,mouse model of NASH; [14],significantly reduced
same,serum total cholesterol level,"mouse model of NASH; 10, 30, and 100 mg/kg",statistically significant reduction
same,"collagen, type 1, alpha 1 expression in the liver vs control NASH mice","mouse model of NASH; 10, 30, or 100 mg/kg",decreased
same,NAFLD Activity Score (NAS) vs untreated NASH mice,mouse model of NASH; [15],significantly lower
same,liver fibrosis (Sirius Red) vs untreated NASH control,mouse model of NASH; [15],statistically significant reduced fibrosis
same,expression of inflammatory and fibrosis related genes,mouse model of NASH; mouse model of NASH,reduced
same,"induction of FXR-specific genes, liver vs ileum (RT-qPCR)",[9]; single oral 10 mg/kg,preferentially induces FXR-specific genes in the liver
same,number of differentially expressed NASH-related genes modulated vs vehicle (liver RNAseq),[9]; [16],500
N#Cc1nn(-c2cc(Cl)c(Oc3n[nH]c(=O)c4c3CCCC4)c(Cl)c2)c(=O)[nH]c1=O [Compound 3],THRα/β selectivity (factor),THRβ,> 8.1
same,IC50,THRα,> 10000 nM
CC1(C)CCc2c(Oc3c(Cl)cc(-n4cc(C#N)c(=O)[nH]c4=O)cc3Cl)n[nH]c(=O)c21 [Compound 6],Curve area,[10],9242 ± 1245 ng·h/mL
same,Time to peak,[10],5.33 ± 1.15 h
N#Cc1nn(-c2cc(Cl)c(Oc3n[nH]c(=O)c4c(Cl)cccc34)c(Cl)c2)c(=O)[nH]c1=O [Compound 7],THRα/β selectivity (factor),THRβ,>6.80
same,IC50,THRα,> 10000 nM
"CC[C@H]1[C@@H](O)[C@@H]2[C@H](CC[C@]3(C)[C@@H]([C@H](C)CCC(=O)O)CC[C@@H]23)[C@@]2(C)CC[C@@H](O)C[C@@H]12 [OCA, obeticholic acid]",EC50,[11]; read-out: BSEP Gene induction/HuH7 EC50,200 nM
same,EC50,[11]; read-out: FGF-19 Gene Induction/HuH7 EC50,130 nM
same,EC50,[11]; read-out: SHP Gene induction/HuH7 EC50,200 nM
same,pruritus in longer term studies,[12],known to result in pruritus
same,number of global pathways enriched (liver RNAseq),[9]; [16],6
same,number of differentially expressed NASH-related genes modulated vs vehicle (liver RNAseq),[9]; [16],44
"CC(C)c1cc(Oc2c(Cl)cc(-n3nc(C#N)c(=O)[nH]c3=O)cc2Cl)n[nH]c1=O [Reference compound, 2-[3,5-Dichloro-4-(5-isopropyl-6-oxo-1,6-dihydropyridazin-3-yloxy)phenyl]-3,5-dioxo-2,3,4,5-tetrahydro[1,2,4]triazine-6-carbonitrile, reference compound]",Curve area,[10],12854 ± 961 ng·h/mL
same,Peak blood drug concentration,[10],1163 ± 97.1 ng/mL
same,Time to peak,[10],5.3 ± 1.15 h
O=C(O)c1ccnc(N2CC(O)(c3ccc(OCc4c(-c5c(Cl)cccc5Cl)noc4C4CC4)cc3Cl)C2)c1 [cilofexor],pruritus in longer term studies,[12],known to result in pruritus
O=C(O)c1cc(F)c2nc(N3[C@@H]4CC[C@H]3C[C@@H](OCc3c(-c5ccccc5OC(F)(F)F)noc3C3CC3)C4)sc2c1 [tropifexor],pruritus in longer term studies,[12],known to result in pruritus
